Laboratory results from ChEMBL document CHEMBL4507318, “Data for DCP probe BAY-985” (2021).

Assays:
[1] = biological target: Receptor-interacting serine/threonine-protein kinase 4 (Homo sapiens) (UniProt P57078)
[2] = system: Tyrosine-protein kinase ABL1 (Homo sapiens), P00519 [Q252H]
[3] = biological target: Receptor tyrosine-protein kinase erbB-4 (Homo sapiens) (UniProt Q15303)
[4] = biological target: Glycogen synthase kinase-3 alpha (Homo sapiens) (UniProt P49840)
[5] = biological target: MAP kinase-interacting serine/threonine-protein kinase 1 (Homo sapiens) (UniProt Q9BUB5)
[6] = biological target: Cyclin-dependent kinase 19 (Homo sapiens) (UniProt Q9BWU1)
[7] = biological target: Death-associated protein kinase 1 (Homo sapiens) (UniProt P53355)
[8] = biological target: Casein kinase I isoform gamma-1 (Homo sapiens) (UniProt Q9HCP0)
Sequence of Casein kinase I isoform gamma-1 (Homo sapiens) (Q9HCP0 whole entry, looked up, canonical isoform): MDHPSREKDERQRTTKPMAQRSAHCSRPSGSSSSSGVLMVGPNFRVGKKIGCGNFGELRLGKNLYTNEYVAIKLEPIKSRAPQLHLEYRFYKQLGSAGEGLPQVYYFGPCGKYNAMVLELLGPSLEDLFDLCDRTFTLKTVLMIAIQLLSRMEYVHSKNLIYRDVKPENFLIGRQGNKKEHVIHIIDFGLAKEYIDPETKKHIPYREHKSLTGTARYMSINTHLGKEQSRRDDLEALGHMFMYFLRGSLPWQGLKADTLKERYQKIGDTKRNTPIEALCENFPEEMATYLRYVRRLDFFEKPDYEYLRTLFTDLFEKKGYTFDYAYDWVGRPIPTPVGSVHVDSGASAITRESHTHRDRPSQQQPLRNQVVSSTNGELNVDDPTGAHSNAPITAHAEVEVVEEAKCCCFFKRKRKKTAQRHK

[9] = biological target: Tyrosine-protein kinase ABL2 (Homo sapiens) (UniProt P42684)
[10] = system: Tyrosine-protein kinase ABL1 (Homo sapiens), P00519 [T315I]
[11] = biological target: Ribosomal protein S6 kinase alpha-2 (Homo sapiens) (UniProt Q15349)
Sequence of Ribosomal protein S6 kinase alpha-2 (Homo sapiens) (Q15349 whole entry): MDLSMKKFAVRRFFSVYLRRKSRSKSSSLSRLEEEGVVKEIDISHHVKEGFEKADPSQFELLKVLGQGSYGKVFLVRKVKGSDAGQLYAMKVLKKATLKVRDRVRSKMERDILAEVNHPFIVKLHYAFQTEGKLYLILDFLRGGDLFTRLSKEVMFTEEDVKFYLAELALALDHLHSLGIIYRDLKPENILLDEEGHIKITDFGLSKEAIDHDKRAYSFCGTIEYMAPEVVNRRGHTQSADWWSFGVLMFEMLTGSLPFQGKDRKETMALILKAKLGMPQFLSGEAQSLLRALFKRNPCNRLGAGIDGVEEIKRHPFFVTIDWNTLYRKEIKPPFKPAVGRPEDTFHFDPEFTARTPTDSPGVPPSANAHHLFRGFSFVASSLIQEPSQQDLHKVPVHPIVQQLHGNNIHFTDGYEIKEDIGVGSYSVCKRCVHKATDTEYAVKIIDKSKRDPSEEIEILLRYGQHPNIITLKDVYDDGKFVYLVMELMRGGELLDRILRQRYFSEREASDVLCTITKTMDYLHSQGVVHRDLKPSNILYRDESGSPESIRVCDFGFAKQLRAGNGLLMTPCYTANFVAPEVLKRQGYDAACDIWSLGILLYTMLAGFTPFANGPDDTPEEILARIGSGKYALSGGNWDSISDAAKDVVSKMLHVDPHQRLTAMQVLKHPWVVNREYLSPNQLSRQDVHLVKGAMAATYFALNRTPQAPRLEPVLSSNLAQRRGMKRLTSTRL

[12] = biological target: Tyrosine-protein kinase Yes (Homo sapiens) (UniProt P07947)
[13] = biological target: Vascular endothelial growth factor receptor 2 (Homo sapiens) (UniProt P35968)
[14] = biological target: Tyrosine-protein kinase Lck (Homo sapiens) (UniProt P06239)
Sequence of Tyrosine-protein kinase Lck (Homo sapiens) (P06239 2-509 limits assumed): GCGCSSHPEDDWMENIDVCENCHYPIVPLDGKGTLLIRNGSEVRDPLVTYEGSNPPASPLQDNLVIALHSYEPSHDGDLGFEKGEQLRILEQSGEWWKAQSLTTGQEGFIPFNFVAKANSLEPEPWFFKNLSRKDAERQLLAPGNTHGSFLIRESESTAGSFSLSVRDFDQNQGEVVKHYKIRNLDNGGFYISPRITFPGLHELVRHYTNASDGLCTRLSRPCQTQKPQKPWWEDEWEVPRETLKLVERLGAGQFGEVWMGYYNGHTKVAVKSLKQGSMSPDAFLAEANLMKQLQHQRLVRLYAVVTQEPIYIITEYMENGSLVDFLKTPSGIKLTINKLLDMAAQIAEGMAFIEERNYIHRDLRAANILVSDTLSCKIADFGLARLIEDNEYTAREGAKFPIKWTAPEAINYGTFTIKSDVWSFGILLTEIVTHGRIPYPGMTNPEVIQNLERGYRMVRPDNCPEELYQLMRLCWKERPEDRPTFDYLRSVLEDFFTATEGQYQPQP

[15] = system: Mast/stem cell growth factor receptor Kit (Homo sapiens), P10721 [D816H]
[16] = biological target: Serine/threonine-protein kinase D2 (Homo sapiens) (UniProt Q9BZL6)
[17] = biological target: Serine/threonine-protein kinase pim-1 (Homo sapiens) (UniProt P11309)
[18] = biological target: Homeodomain-interacting protein kinase 1 (Homo sapiens) (UniProt Q86Z02)
[19] = biological target: Insulin receptor (Homo sapiens) (UniProt P06213)
[20] = biological target: Ephrin type-A receptor 8 (Homo sapiens) (UniProt P29322)
[21] = biological target: Proto-oncogene tyrosine-protein kinase Src (Homo sapiens) (UniProt P12931)
[22] = biological target: Phosphorylase b kinase regulatory subunit alpha, liver isoform (Homo sapiens) (UniProt P46019)
[23] = biological target: Serine/threonine-protein kinase PAK 4 (Homo sapiens) (UniProt O96013)
[24] = biological target: Insulin-like growth factor 1 receptor (Homo sapiens) (UniProt P08069)
Sequence of Insulin-like growth factor 1 receptor (Homo sapiens) (P08069 31-736 limits assumed): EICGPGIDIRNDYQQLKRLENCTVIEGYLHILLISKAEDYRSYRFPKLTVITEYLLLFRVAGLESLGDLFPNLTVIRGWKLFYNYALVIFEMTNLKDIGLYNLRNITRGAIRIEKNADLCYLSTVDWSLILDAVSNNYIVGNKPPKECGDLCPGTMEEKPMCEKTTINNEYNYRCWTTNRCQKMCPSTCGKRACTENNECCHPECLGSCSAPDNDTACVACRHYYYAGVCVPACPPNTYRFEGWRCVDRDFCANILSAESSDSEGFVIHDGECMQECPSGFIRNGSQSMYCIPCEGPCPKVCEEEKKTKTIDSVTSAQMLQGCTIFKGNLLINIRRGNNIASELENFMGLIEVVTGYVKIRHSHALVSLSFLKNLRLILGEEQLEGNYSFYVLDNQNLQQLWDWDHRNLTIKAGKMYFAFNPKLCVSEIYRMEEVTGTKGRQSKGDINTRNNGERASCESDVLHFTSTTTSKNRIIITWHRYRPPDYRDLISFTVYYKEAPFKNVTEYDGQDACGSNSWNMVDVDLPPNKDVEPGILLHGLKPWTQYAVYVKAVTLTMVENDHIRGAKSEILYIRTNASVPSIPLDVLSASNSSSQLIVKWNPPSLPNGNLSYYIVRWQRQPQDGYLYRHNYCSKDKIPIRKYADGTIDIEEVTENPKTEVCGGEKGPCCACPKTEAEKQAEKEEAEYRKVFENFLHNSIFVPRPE
Sequence of Insulin-like growth factor 1 receptor (Homo sapiens) (P08069 741-1367 limits assumed): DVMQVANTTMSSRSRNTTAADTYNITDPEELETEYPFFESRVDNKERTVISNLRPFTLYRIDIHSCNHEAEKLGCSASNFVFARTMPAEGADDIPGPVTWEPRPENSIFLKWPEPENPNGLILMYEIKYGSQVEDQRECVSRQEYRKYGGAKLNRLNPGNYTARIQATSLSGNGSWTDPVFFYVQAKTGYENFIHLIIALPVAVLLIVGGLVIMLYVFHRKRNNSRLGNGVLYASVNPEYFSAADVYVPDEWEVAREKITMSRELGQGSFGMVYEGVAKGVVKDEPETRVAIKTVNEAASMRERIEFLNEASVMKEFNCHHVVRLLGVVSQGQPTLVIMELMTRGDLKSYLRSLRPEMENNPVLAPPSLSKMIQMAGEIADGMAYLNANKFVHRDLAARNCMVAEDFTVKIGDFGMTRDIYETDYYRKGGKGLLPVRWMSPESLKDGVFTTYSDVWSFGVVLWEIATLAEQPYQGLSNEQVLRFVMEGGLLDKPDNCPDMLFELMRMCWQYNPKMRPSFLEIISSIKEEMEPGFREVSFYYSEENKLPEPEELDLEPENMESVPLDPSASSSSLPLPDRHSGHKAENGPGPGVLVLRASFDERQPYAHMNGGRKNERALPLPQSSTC

[25] = biological target: Serine/threonine-protein kinase NIM1 (Homo sapiens) (UniProt Q8IY84)
Sequence of Serine/threonine-protein kinase NIM1 (Homo sapiens) (Q8IY84 whole entry): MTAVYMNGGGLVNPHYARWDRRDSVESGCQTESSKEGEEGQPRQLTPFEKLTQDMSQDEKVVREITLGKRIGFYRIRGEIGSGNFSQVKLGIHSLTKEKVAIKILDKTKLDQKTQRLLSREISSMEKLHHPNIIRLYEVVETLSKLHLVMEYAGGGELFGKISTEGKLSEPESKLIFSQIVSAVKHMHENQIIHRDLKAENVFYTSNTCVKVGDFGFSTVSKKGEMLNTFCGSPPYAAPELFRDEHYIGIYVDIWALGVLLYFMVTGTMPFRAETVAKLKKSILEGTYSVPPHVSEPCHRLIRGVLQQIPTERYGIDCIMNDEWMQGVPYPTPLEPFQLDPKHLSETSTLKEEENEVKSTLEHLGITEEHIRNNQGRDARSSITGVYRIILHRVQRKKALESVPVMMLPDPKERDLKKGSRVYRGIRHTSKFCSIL

[26] = biological target: Aurora kinase C (Homo sapiens) (UniProt Q9UQB9)
[27] = biological target: Casein kinase I isoform gamma-2 (Homo sapiens) (UniProt P78368)
[28] = system: Phosphatidylinositol 4,5-bisphosphate 3-kinase catalytic subunit alpha isoform (Homo sapiens), P42336 [E542K]
[29] = biological target: 1-phosphatidylinositol 3-phosphate 5-kinase (Homo sapiens) (UniProt Q9Y2I7)
[30] = biological target: Hormonally up-regulated neu tumor-associated kinase (Homo sapiens) (UniProt P57058)
[31] = biological target: Dual specificity mitogen-activated protein kinase kinase 5 (Homo sapiens) (UniProt Q13163)
[32] = biological target: Ribosomal protein S6 kinase alpha-2 (Homo sapiens) (UniProt Q15349); remark: listed apart in the source
[33] = biological target: D(3) dopamine receptor (Homo sapiens) (UniProt P35462); details: Compound concentration 10.0 uM
Sequence of D(3) dopamine receptor (Homo sapiens) (P35462 whole entry): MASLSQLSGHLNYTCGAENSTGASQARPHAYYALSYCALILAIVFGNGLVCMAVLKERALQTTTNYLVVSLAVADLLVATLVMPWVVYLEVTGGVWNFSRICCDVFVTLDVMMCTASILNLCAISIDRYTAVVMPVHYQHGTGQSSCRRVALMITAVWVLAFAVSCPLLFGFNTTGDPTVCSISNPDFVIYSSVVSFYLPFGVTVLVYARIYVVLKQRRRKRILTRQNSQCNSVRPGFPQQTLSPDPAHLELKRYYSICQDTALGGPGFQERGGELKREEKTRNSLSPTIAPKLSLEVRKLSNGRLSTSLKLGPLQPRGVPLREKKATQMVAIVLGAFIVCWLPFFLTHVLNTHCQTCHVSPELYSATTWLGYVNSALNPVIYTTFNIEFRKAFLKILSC

[34] = biological target: Cyclin-dependent kinase 2 homolog (Plasmodium falciparum (isolate 3D7)) (UniProt P61075)
[35] = biological target: Serine/threonine-protein kinase N1 (Homo sapiens) (UniProt Q16512)
[36] = biological target: Cyclin-dependent kinase 4 (Homo sapiens) (UniProt P11802)
Sequence of Cyclin-dependent kinase 4 (Homo sapiens) (P11802 whole entry): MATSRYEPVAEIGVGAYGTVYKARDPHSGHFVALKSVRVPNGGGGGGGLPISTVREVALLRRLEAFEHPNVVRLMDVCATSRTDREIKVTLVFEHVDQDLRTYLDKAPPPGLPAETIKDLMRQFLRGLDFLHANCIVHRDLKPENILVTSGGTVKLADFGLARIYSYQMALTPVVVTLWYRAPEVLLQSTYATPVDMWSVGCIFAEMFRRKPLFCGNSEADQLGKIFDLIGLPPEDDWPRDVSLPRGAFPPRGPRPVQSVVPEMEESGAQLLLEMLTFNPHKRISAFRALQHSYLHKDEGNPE

[37] = biological target: Serine/threonine-protein kinase SBK1 (Homo sapiens) (UniProt Q52WX2)
[38] = biological target: Aurora kinase A (Homo sapiens) (UniProt O14965)
[39] = biological target: SRSF protein kinase 3 (Homo sapiens) (UniProt Q9UPE1)
[40] = biological target: Serine/threonine-protein kinase RIO2 (Homo sapiens) (UniProt Q9BVS4)
[41] = biological target: Serine/threonine-protein kinase OSR1 (Homo sapiens) (UniProt O95747)
[42] = biological target: Tyrosine-protein kinase Srms (Homo sapiens) (UniProt Q9H3Y6)
[43] = biological target: BDNF/NT-3 growth factors receptor (Homo sapiens) (UniProt Q16620)
[44] = biological target: Proto-oncogene tyrosine-protein kinase receptor Ret (Homo sapiens) (UniProt P07949)
[45] = biological target: Mitogen-activated protein kinase 15 (Homo sapiens) (UniProt Q8TD08)
[46] = Compound concentration 1000.0 nM
[47] = Compound concentration 100.0 nM

Sequence of Receptor-interacting serine/threonine-protein kinase 4 (Homo sapiens) (P57078 whole entry): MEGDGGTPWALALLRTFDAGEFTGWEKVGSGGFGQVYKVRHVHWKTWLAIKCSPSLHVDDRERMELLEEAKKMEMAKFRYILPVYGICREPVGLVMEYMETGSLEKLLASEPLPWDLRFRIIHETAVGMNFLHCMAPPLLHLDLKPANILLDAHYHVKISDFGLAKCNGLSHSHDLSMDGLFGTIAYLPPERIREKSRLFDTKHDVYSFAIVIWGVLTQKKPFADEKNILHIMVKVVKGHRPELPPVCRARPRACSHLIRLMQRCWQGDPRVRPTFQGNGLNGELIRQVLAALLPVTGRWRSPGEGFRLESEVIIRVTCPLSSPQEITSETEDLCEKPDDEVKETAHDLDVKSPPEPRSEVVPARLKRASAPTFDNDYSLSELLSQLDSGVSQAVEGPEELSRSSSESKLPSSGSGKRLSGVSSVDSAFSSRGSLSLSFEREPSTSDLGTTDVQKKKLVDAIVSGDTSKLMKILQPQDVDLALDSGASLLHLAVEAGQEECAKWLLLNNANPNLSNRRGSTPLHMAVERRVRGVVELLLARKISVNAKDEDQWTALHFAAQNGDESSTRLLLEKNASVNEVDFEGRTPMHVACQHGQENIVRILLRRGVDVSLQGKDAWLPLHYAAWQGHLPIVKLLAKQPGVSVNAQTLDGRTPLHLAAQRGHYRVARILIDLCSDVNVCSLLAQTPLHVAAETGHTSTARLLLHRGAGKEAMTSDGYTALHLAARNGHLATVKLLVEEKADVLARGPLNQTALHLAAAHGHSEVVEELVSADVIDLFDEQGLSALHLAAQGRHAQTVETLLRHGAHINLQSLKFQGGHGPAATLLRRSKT

CN(C)c1ncnc(-c2ccc3nc(Nc4cc(CN5CCN(C(=O)CC(F)(F)F)CC5)ccn4)[nH]c3c2)c1Cl [BAY-440]
residual activity [1, 46]: 100%
residual activity [2, 46]: 22%
residual activity [3, 46]: 99%
residual activity [4, 46]: 75%
residual activity [5, 46]: 62%
residual activity [6, 46]: 75%
residual activity [7, 46]: 100%
residual activity [8, 46]: 76%
residual activity [9, 46]: 71%
residual activity [10, 46]: 46%
residual activity [11, 46]: 100%
residual activity [12, 46]: 76%
residual activity [13, 46]: 74%
residual activity [14, 46]: 100%
residual activity [15, 46]: 75%
residual activity [16, 46]: 84%
residual activity [17, 46]: 100%
residual activity [18, 46]: 74%
residual activity [19, 46]: 100%
residual activity [20, 46]: 100%
residual activity [21, 46]: 100%
residual activity [22, 46]: 100%
residual activity [23, 46]: 100%
residual activity [24, 46]: 100%
residual activity [25, 46]: 61%
residual activity [26, 46]: 100%
residual activity [27, 46]: 100%
residual activity [28, 46]: 29%
residual activity [29, 46]: 81%
residual activity [30, 46]: 80%
residual activity [31, 46]: 1.8%
residual activity [32, 46]: 100%
inhibition [33]: 30.1%
residual activity [34, 46]: 85%
residual activity [35, 46]: 100%
residual activity [36, 46]: 69%
residual activity [37, 46]: 71%
residual activity [38, 46]: 84%
residual activity [39, 46]: 100%
residual activity [40, 46]: 81%
residual activity [41, 46]: 94%
residual activity [42, 46]: 88%
residual activity [43, 46]: 63%
residual activity [44, 46]: 77%
residual activity [45, 46]: 73%

C[C@H](c1ccnc(Nc2nc3ccc(-c4cc(N(C)C)ncn4)cc3[nH]2)c1)N1CCN(C(=O)CC(F)(F)F)CC1 [BAY-985]
residual activity [1, 47]: 100%
residual activity [2, 47]: 94%
residual activity [3, 47]: 96%
residual activity [4, 47]: 100%
residual activity [5, 47]: 92%
residual activity [6, 47]: 93%
residual activity [7, 47]: 93%
residual activity [8, 47]: 100%
residual activity [9, 47]: 100%
residual activity [10, 47]: 100%
residual activity [11, 47]: 89%
residual activity [12, 47]: 92%
residual activity [13, 47]: 100%
residual activity [14, 47]: 100%
residual activity [15, 47]: 82%
residual activity [16, 47]: 100%
residual activity [17, 47]: 79%
residual activity [18, 47]: 95%
residual activity [19, 47]: 100%
residual activity [20, 47]: 100%
residual activity [21, 47]: 100%
residual activity [22, 47]: 81%
residual activity [23, 47]: 81%
residual activity [24, 47]: 98%
residual activity [25, 47]: 100%
residual activity [26, 47]: 100%
residual activity [27, 47]: 96%
residual activity [28, 47]: 53%
residual activity [29, 47]: 100%
residual activity [30, 47]: 95%
residual activity [31, 47]: 8.5%
residual activity [32, 47]: 98%
inhibition [33]: 35.5%
residual activity [34, 47]: 100%
residual activity [35, 47]: 100%
residual activity [36, 47]: 100%
residual activity [37, 47]: 85%
residual activity [38, 47]: 100%
residual activity [39, 47]: 100%
residual activity [40, 47]: 100%
residual activity [41, 47]: 100%
residual activity [42, 47]: 97%
residual activity [43, 47]: 100%
residual activity [44, 47]: 100%
residual activity [45, 47]: 100%
